Source: US11286263B2, “Macrocyclic fluorine substituted indole derivatives” (The Broad Institute, Inc., priority 2017, dated 2022)
Values joined by “and” are separate entries in the source; they are usually repeats but may differ in a detail not shown here. Equal values may be shown once. Where a name gives a salt, the structure may show the parent alone. Read-outs that look alike come from different tables or passages of the source.

What was measured:
MCL-1 = MCL-1 (Homo sapiens (Human), UniProt Q07820, K194A/K197A/R201A); assay: Protein-protein interaction assay MCL-1/Noxa BH3 peptide (MCL-1 assay), TR-FRET; type: binding; conditions: MCL-1/Noxa BH3 peptide TR-FRET; median
Chain of MCL-1 (Q07820 whole entry K194A/K197A/R201A, looked up): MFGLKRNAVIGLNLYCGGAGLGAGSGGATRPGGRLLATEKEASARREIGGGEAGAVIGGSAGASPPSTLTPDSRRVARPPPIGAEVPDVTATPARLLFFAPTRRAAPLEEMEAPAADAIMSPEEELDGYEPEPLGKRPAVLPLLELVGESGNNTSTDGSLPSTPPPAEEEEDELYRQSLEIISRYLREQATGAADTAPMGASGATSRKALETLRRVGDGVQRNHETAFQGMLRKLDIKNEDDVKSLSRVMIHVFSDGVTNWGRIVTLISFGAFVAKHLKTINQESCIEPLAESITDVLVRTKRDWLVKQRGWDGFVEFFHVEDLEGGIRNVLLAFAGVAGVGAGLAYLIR
Outline: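 TR-FRET competition between MBP-MCL-1 (173-321, 1 nM) and biotin-Noxa BH3 peptide (1 nM) with anti-MBP-Eu/streptavidin-XL665; 11 compound levels 0.1 nM–20 μM, 10 min preincubation. Incubated 1 h at 22 °C then overnight at 4 °C, pH 7 Tris buffer. 665/620 ratio normalized to DMSO and no-MCL-1; 4-parameter IC50.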

SUDHL10 [1] = assay: Induction of cytotoxicity, SUDHL10 (Assay 6); conditions: read-out: IC50 Cytotox SUDHL10 [M] (median), SUDHL10 cells, 5 h, CellTiter-Glo
SUDHL10 [2] = assay: Induction of caspase-3/7 activity, SUDHL10 (Assay 4); type: cell-based; conditions: SUDHL10 cells
Outline: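 DLBCL lines treated with compounds for 3 h at 37° C.; caspase-3/7 activity read by Caspase-Glo 3/7 luminescence. Medium-only background subtracted; EC50 fitted with bottom fixed at 1 and top set to reference compound's maximal induction.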

A2780 = assay: Antiproliferation assay A2780 (Assay 7); type: cell-based; conditions: Homo sapiens, A2780, 72 h, A2780 cells, CellTiter-Glo, single determinations, read-out: IC50 Antiproli A2780
Outline: (§1)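 Cells were incubated with compounds for 72 h at 37°C. Viability was then read by CellTiter-Glo luminescence, and a parallel day 0 plate read the same way gave the time-zero signal.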

AMO-1 = assay: Antiproliferation assay AMO-1 (Assay 7); type: cell-based; conditions: AMO-1 cells, CellTiter-Glo, single determinations, read-out: IC50 Antiproli AMO-1
Outline: as §1

[3] = Homo sapiens, SU-DHL10, 3 h, Caspase-Glo 3/7, median

Row | IC50 (MCL-1) [nM] | EC50 (SUDHL10 [2]; [3]) [nM] | IC50 (A2780) [nM] | EC50 (SUDHL10 [2]; 3 h, Caspase-Glo 3/7, median) [nM] | SMILES | IC50 (SUDHL10 [1]; Homo sapiens, SU-DHL10, 5 h) [M] | IC50 (SUDHL10 [1]) [M] | IC50 (AMO-1; 72 h) | IC50 (AMO-1; Homo sapiens, AMO1, 72 h) [nM]
1 | 1.9 |  |  | 4100 | Cc1c2c(nn1C)COCCCCn1c(C(=O)O)c(CCCOc3ccc(F)c4ccccc34)c3ccc(F)c-2c31 (single isomer, unassigned; enantiomer 1) [Example 16, 4-fluoro-7-{3-[(4-fluoronaphthalen-1-yl)oxy]propyl}-2,3-dimethyl-2,10,11,12,13,15-hexahydro-pyrazolo[4′,3′:9,10][1,6]oxazacycloundecino[8,7,6-hi]indole-8-carboxylic acid (enantiomer 1)] |  | 4.3e-06 | 6950 nM | 
2 | 0.72 | 680 |  |  | CCc1c2c(nn1C)CN(C)CCCCn1c(C(=O)O)c(CCCOc3cccc4ccccc34)c3ccc(F)c-2c31 (racemic) [Example 54, (rac)-3-ethyl-4-fluoro-2,14-dimethyl-7-[3-(1-naphthyloxy)propyl]-10,11,12,13,14,15-hexahydro-2H-pyrazolo[3′,4′:8,9][1,6]diazacycloundecino[10,11,1-hi]indole-8-carboxylic acid] | 1.4e-06 |  |  | 
3 | 1.7 | 210 |  |  | CCc1c2c(nn1C)CN(C)CCCCn1c(C(=O)O)c(CCCOc3cccc4c3CCCC4)c3ccc(F)c-2c31 (racemic) [Example 52, (rac)-3-ethyl-4-fluoro-2,14-dimethyl-7-[3-(5,6,7,8-tetrahydronaphthalen-1-yloxy)propyl]-10,11,12,13,14,15-hexahydro-2H-pyrazolo[3′,4′:8,9][1,6]diazacycloundecino[10,11,1-hi]indole-8-carboxylic acid] | 3.1e-07 |  |  | 
4 | 0.91 | 440 |  |  | CCc1c2c(nn1C)CN(C)CCCCn1c(C(=O)O)c(CCCOc3cccc4c3CCC4)c3ccc(F)c-2c31 (racemic) [Example 51, (rac)-7-[3-(2,3-dihydro-1H-inden-4-yloxy)propyl]-3-ethyl-4-fluoro-2,14-dimethyl-10,11,12,13,14,15-hexahydro-2H-pyrazolo[3′,4′:8,9][1,6]diazacycloundecino[10,11,1-hi]indole-8-carboxylic acid] | 3.6e-07 |  |  | 
5 | 9.6 |  |  | 11000 | CCc1c2c(nn1C)COCCCCn1c(C(=O)O)c(CCCOc3cccc4cc(F)ccc34)c3ccc(F)c-2c31 (single isomer, unassigned; enantiomer 2) [Example 23, 3-ethyl-4-fluoro-7-{3-[(6-fluoronaphthalen-1-yl)oxy]propyl}-2-methyl-2,10,11,12,13,15-hexahydropyrazolo[4′,3′:9,10][1,6]oxazacycloundecino[8,7,6-hi]indole-8-carboxylic acid-N-ethylethanamine salt (enantiomer 2)] |  | 9e-06 |  | 
6 | 2 | 7700 |  |  | CCc1nn(C)c2c1-c1c(F)ccc3c(CCCOc4cc(C)c(Cl)c(C)c4)c(C(=O)O)n(c13)CCCCOC2 (racemic) [Example 46, (rac)-1-(3-(4-chloro-3,5-dimethylphenoxy)propyl)-12-ethyl-13-fluoro-10-methyl-4,5,6,7,9,10-hexahydropyrazolo[4′,3′:9,10][1]oxa[6]azacycloundecino[8,7,6-hi]indole-2-carboxylic acid] | 5.7e-06 |  | 9100 nM | 8170
7 | 1.5 | 4000 |  |  | Cc1cc(OCCCc2c(C(=O)O)n3c4c(c(F)ccc24)-c2c(nn(C)c2C)COCCCC3)cc(C)c1Cl (racemic) [Example 20, (rac)-1-(3-(4-chloro-3,5-dimethylphenoxy)propyl)-13-fluoro-11,12-dimethyl-4,5,6,7,9,11-hexahydropyrazolo[4′,3′:9,10][1]oxa[6]azacycloundecino[8,7,6-hi]indole-2-carboxylic acid] | 2.6e-06 |  |  | 

Continued, molecule first:

Row | SMILES | IC50 (MCL-1) [nM] | EC50 (SUDHL10 [2]; [3]) [nM] | IC50 (A2780) [nM] | EC50 (SUDHL10 [2]; 3 h, Caspase-Glo 3/7, median) [nM] | IC50 (SUDHL10 [1]; Homo sapiens, SU-DHL10, 5 h) [M] | IC50 (SUDHL10 [1]) [M] | IC50 (AMO-1; 72 h) | IC50 (AMO-1; Homo sapiens, AMO1, 72 h) [nM]
8 | CCc1nn(C)c2c1-c1c(F)ccc3c(CCCOc4cccc5ccccc45)c(C(=O)O)n(c13)CCCCOC2 (racemic) [Example 37, (rac)-12-ethyl-13-fluoro-10-methyl-1-(3-(naphthalen-1-yloxy)propyl)-4,5,6,7,9,10-hexahydro-pyrazolo[4′,3′:9,10][1]oxa[6]azacycloundecino[8,7,6-hi]indole-2-carboxylic acid] | 1.2 | 7200 | > 33000 |  | 4.8e-06 |  |  | 
9 | Cc1nn(C)c2c1-c1c(F)ccc3c(CCCOc4ccc(F)c5ccccc45)c(C(=O)O)n(c13)CCCCOC2 (racemic) [Example 33, (rac)-13-fluoro-1-(3-((4-fluoronaphthalen-1-yl)oxy)propyl)-10,12-dimethyl-4,5,6,7,9,10-hexahydropyrazolo[4′,3′:9,10][1]oxa[6]azacycloundecino[8,7,6-hi]indole-2-carboxylic acid] | 1.7 | 9100 | 23300 |  | 8.4e-06 |  |  | 
10 | CCc1c2c(nn1C)CN(C)CCCCn1c(C(=O)O)c(CCCOc3cccc4cc(F)ccc34)c3ccc(F)c-2c31 (racemic) [Example 53, (rac)-3-ethyl-4-fluoro-7-{3-[(6-fluoro-1-naphthyhoxy]propyl}-2,14-dimethyl-10,11,12,13,14,15-hexahydro-2H-pyrazolo[3′,4′:8,9][1,6]diazacycloundecino[10,11,1-hi]indole-8-carboxylic acid] | 0.91 | 490 |  |  | 6.9e-07 |  |  | 
11 | CCc1c2c(nn1C)COCCCCn1c(C(=O)O)c(CCCOc3cccc4cc(F)ccc34)c3ccc(F)c-2c31 (single isomer, unassigned; enantiomer 1) [Example 24, 3-ethyl-4-fluoro-7-{3-[(6-fluoronaphthalen-1-yl)oxy]propyl}-2-methyl-2,10,11,12,13,15-hexahydropyrazolo[4′,3′:9,10][1,6]oxazacycloundecino[8,7,6-hi]indole-8-carboxylic acid (enantiomer 1)] | 0.58 |  |  | 540 |  | 6.8e-07 | 878 nM | 
12 | Cc1c2c(nn1C)COCCCCn1c(C(=O)O)c(CCCOc3ccc(F)c4ccccc34)c3ccc(F)c-2c31 (racemic) [Example 15, (rac)-13-fluoro-1-(3-((4-fluoronaphthalen-1-yl)oxy)propyl)-11,12-dimethyl-4,5,6,7,9,11-hexahydropyrazolo[4′,3′:9,10][1]oxa[6]azacycloundecino[8,7,6-hi]indole-2-carboxylic acid] | 1.3 | 5800 |  |  | 3e-06 |  |  | 
13 | CCc1c2c(nn1C)COCCCCn1c(C(=O)O)c(CCCOc3ccc(F)c4ccccc34)c3ccc(F)c-2c31 (single isomer, unassigned; enantiomer 1) [Example 27, 3-ethyl-4-fluoro-7-{3-[(4-fluoronaphthalen-1-yl)oxy]propyl}-2-methyl-2,10,11,12,13,15-hexahydropyrazolo[4′,3′:9,10][1,6]oxazacycloundecino[8,7,6-hi]indole-8-carboxylic acid-N-ethylethanamine salt (enantiomer 1)] | 1.5 |  |  | 1600 |  | 1.8e-06 | 1330 nM and 2530 nM | 
14 | CCc1nn(C)c2c1-c1c(F)ccc3c(CCCOc4cccc5c4CCCC5)c(C(=O)O)n(c13)CCCCOC2 (racemic) [Example 44, (rac)-12-ethyl-13-fluoro-10-methyl-1-(3-((5,6,7,8-tetrahydronaphthalen-1-yl)oxy)propyl)-4,5,6,7,9,10-hexahydropyrazolo[4′,3′:9,10][1]oxa[6]azacycloundecino[8,7,6-hi]indole-2-carboxylic acid] | 1.7 | 4500 |  |  | 4.2e-06 |  |  | 7410
15 | CCc1nn(C)c2c1-c1c(F)ccc3c(CCCOc4ccc(F)c5ccccc45)c(C(=O)O)n(c13)CCCCOC2 (single isomer, unassigned; enantiomer 1) [Example 42, 3-ethyl-4-fluoro-7-{3-[(4-fluoronaphthalen-1-yl)oxy]propyl}-1-methyl-1,10,11,12,13,15-hexahydropyrazolo[4′,3′:9,10][1,6]oxazacycloundecino[8,7,6-hi]indole-8-carboxylic acid (enantiomer 1)] | 1.7 |  |  | 6300 |  | 9.6e-06 | 6960 nM | 
16 | Cc1c2c(nn1C)COCCCCn1c(C(=O)O)c(CCCOc3cccc4c3CCCC4)c3ccc(F)c-2c31 (racemic) [Example 18, (rac)-13-fluoro-11,12-dimethyl-1-(3-((5,6,7,8-tetrahydronaphthalen-1-yl)oxy)propyl)-4,5,6,7,9,11-hexahydropyrazolo[4′,3′:9,10][1]oxa[6]azacycloundecino[8,7,6-hi]indole-2-carboxylic acid] | 1.6 | 2300 |  |  | 1.7e-06 |  | 2160 nM and 3190 nM | 3980
